Literature values, collected in patent publication US20190314449A1, “CYCLIC DIPEPTIDES AND WOUND HEALING” (THE BOARD OF REGENTS OF THE UNIVERSITY OF TEXAS SYSTEM, priority 2016, published 2019).

What was measured:
[1] = human, acute oral, 24 mg/dose, cited from earlier work
[2] = test system: heme oxygenase 1; conditions: neuronal cultures; cited from earlier work

O=C1NC(Cc2c[nH]cn2)C(=O)N2CCCC12 (centres unmarked) [Cyclo-His-Pro]
time at which plasma CHP levels peak ([1]; plasma): 4 h
time at which plasma CHP levels return to normal ([1]; plasma): ≤ 24 h
absorption from the gastrointestinal tract [1]: absorbed from the gastrointestinal tract
side effects based on physical and blood chemistry examinations [1]: No side effects
heme oxygenase 1 expression via activation of Nrf-2 ARE signaling [2]: up-regulate heme oxygenase 1
